{
  "source": "paper PMC7243365",
  "about": "(Antiviral research, 2020)",
  "key": {"[1]": {"system": "A/Puerto Rico/8/34 (H1N1)", "conditions": "oral administration; ref van Dongen et al., 2019; cited from earlier work"}, "[2]": {"system": "H1N1-GFP (A/Puerto Rico/8/34, NS1-GFP)", "format": "cell-based, influenza A virus H1N1", "conditions": "for pIC50: read-out: IC50 anti-H1N1"}, "A549 cells": {"system": "A549 cells", "assay": "Cell viability assay", "conditions": "48 h, CellTiter-Glo"}, "[3]": {"system": "his-tagged HA (H5) protein binding to A549 cells", "parameters": "species or system influenza A virus H5", "conditions": "for pIC50: read-out: IC50 HA (H5) protein binding to A549 cells"}, "[4]": {"system": "A/Puerto Rico/8/34 (H1N1)", "format": "cell-based, influenza A virus H1N1", "conditions": "read-out: IC50 H1N1 plaque reduction"}, "[5]": {"system": "H1N1-GFP (A/Puerto Rico/8/34, NS1-GFP)", "format": "cell-based, influenza A virus H1N1"}, "HIV/H5N1 pseudovirus [6]": {"system": "HIV/H5N1 pseudovirus", "format": "cell-based, influenza A virus A/Goose/Qinghai/59/05 (H5N1)", "conditions": "read-out: IC50 HIV/H5N1"}, "A/HongKong/2/68 (H3N2)": {"system": "A/HongKong/2/68 (H3N2)", "format": "cell-based, influenza A virus H3N2"}, "[7]": {"system": "HIV/H5N1 pseudovirus HA-mediated hemolysis", "conditions": "read-out: IC50 hemolysis inhibition; pH 5"}, "HIV/H5N1 pseudovirus [8]": {"system": "HIV/H5N1 pseudovirus", "format": "cell-based, influenza A virus H5N1", "conditions": "10 µM"}, "VN04Low (H5N1)": {"system": "VN04Low (H5N1)", "format": "cell-based, influenza A virus H5N1", "conditions": "read-out: IC50 H5N1 plaque reduction"}, "[9]": {"system": "A/rhea/North Carolina/39482/93 (H7N1)", "format": "cell-based, influenza A virus H7N1"}, "[10]": {"system": "VN04Low (H5N1), A/Vietnam/1203/04", "format": "cell-based, influenza A virus H5N1"}},
  "note": "pIC50: −log10 of the molar value.",
  "data": [
    {"smiles": "CC(=O)Nc1ccc2oc(-c3ccnc(C(=O)N4CCN([C@H](c5ccccc5)c5nnn(C)n5)CC4)c3)nc2c1", "note": "[JNJ4796]", "values": [
      {"measurement": "protection of mice against H1N1 challenge", "setting": "[1]", "value": "protects mice"}
    ]},
    {"smiles": "CC(C)N1CCC(NC(=O)c2c(Cl)cccc2Cl)CC1", "note": "[CBS1117]", "values": [
      {"measurement": "pIC50", "setting": "[2]", "value": 7.15},
      {"measurement": "CC50", "setting": "A549 cells", "value": 274, "unit": "µM"}
    ]},
    {"smiles": "CC(=O)N[C@H]1[C@H]([C@H](O)[C@H](O)CO)O[C@@](OC[C@H]2O[C@@H](O[C@H]3[C@H](O)[C@@H](O)C(O)O[C@@H]3CO)[C@H](O)[C@@H](O)[C@H]2O)(C(=O)O)C[C@@H]1O", "note": "(stereo partly shown) [2,6-sialyllactose]", "values": [
      {"measurement": "inhibition of HA (H5) protein binding at 27 mM", "setting": "[3]", "value": 47, "unit": "%"},
      {"measurement": "pIC50", "setting": "[3]", "value": 1.53}
    ]},
    {"smiles": "CC(C)N1CCC(NC(=O)c2ccc(Cl)cc2Cl)CC1", "note": "[CBS1116, 2,4-dichloro-N-(1-isopropyl-4-piperidinyl) benzamide]", "values": [
      {"measurement": "H1N1-GFP infection at 5 μM", "setting": "[2]", "value": "completely blocked"},
      {"measurement": "concentration at which significant inhibition of H1N1 was observed", "setting": "[2]", "value": 5, "unit": "µM"},
      {"measurement": "pIC50", "setting": "[2]", "value": 6.40},
      {"measurement": "pIC50", "setting": "[4]", "value": 6.40},
      {"measurement": "cells infected by H1N1-GFP, added at 0h", "setting": "[5]", "value": 0, "unit": "%"},
      {"measurement": "cells infected by H1N1-GFP, added at +1h", "setting": "[5]", "value": 17, "unit": "%"},
      {"measurement": "cells infected by H1N1-GFP, added at +2h", "setting": "[5]", "value": 26, "unit": "%"},
      {"measurement": "cells infected by H1N1-GFP, added at +3h", "setting": "[5]", "value": 33, "unit": "%"},
      {"measurement": "cells infected by H1N1-GFP, added at -1h", "setting": "[5]", "value": 38, "unit": "%"},
      {"measurement": "cell toxicity to MDCK cells", "setting": "MDCK cells", "value": "no cell toxicity"},
      {"measurement": "pIC50", "setting": "HIV/H5N1 pseudovirus [6]", "value": 5.41},
      {"measurement": "HA protein still bound to the cells", "setting": "[3]", "value": 100, "unit": "%"},
      {"measurement": "inhibition against H3N2", "setting": "A/HongKong/2/68 (H3N2)", "value": "no inhibition"},
      {"measurement": "pIC50", "setting": "[7]", "value": 5.22},
      {"measurement": "inhibition of HIV/H5N1 infection, added at 0h", "setting": "HIV/H5N1 pseudovirus [8]", "value": "~ 99%"},
      {"measurement": "inhibition of HIV/H5N1 infection, added at +1h", "setting": "HIV/H5N1 pseudovirus [8]", "value": 75, "unit": "%"},
      {"measurement": "inhibition of HIV/H5N1 infection, added at +2h", "setting": "HIV/H5N1 pseudovirus [8]", "value": 41, "unit": "%"},
      {"measurement": "inhibition of HIV/H5N1 infection, added at -1h", "setting": "HIV/H5N1 pseudovirus [8]", "value": "no inhibition"},
      {"measurement": "pIC50", "setting": "VN04Low (H5N1)", "value": 4.86},
      {"measurement": "inhibition against H7N1", "setting": "[9]", "value": "no inhibition"},
      {"measurement": "inhibitory activity against VN04Low strain", "setting": "[10]", "value": "inhibitory activity against VN04Low strain in a concentration-dependent manner"}
    ]},
    {"smiles": "CC(=O)N[C@H]1[C@H]([C@H](O)[C@H](O)CO)O[C@@](O[C@H]2[C@@H](O)[C@@H](CO)O[C@@H](O[C@H]3[C@H](O)[C@@H](O)C(O)O[C@@H]3CO)[C@@H]2O)(C(=O)O)C[C@@H]1O", "note": "(stereo partly shown) [2,3-sialyllactose]", "values": [
      {"measurement": "inhibition of HA (H5) protein binding at 9 mM", "setting": "[3]", "value": "inhibited protein binding completely"},
      {"measurement": "pIC50", "setting": "[3]", "value": 2.74}
    ]}
  ]
}
